The values that follow come from patent US7109216B2 (priority 2001, dated 2006).

Data set [1] concerns the target human cannabinoid CB1 receptor (Homo sapiens, UniProt P21554). Kind of data set: biochemical. The class given is binding. Set-up: expressed in transfected cells; host or cells: Chinese hamster ovary (CHO) cells, membrane preparation. To be noted: [3H]CP-55,940 radioligand, CHO cell membranes stably transfected with human CB1. As for the experimental part: After incubation of a freshly prepared cell membrane preparation with the [^3H]-ligand, with or without addition of compounds of the invention, separation of bound and free ligand was performed by filtration over glassfiber filters. Radioactivity on the filter was measured by liquid scintillation counting.

Read-outs that look alike come from different tables or passages of the source. A value given as a limit tells only on which side of the number the result lay.

Chain of human cannabinoid CB1 receptor (P21554 whole entry): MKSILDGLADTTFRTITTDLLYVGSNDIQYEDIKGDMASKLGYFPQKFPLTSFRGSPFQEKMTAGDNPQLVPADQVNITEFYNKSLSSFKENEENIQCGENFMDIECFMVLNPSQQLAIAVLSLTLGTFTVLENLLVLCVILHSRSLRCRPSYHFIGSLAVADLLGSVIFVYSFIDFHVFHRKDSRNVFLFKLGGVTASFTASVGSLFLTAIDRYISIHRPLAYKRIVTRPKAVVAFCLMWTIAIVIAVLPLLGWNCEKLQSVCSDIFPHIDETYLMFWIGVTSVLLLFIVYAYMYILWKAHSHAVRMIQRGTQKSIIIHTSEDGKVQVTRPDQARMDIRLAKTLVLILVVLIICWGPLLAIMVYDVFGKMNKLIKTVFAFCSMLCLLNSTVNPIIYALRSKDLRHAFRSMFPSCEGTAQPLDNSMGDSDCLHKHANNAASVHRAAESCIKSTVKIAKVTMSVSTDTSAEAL

The melting point is the temperature of the solid-liquid transition. The molecule `CCc1c(C(=O)NC2CCCCC2)nc(-c2cc(Cl)ccc2Cl)n1-c1ccccc1` displayed a melting point of 198 to 199 °C.

The molecule `CCc1c(C(=O)NN2CCCCC2)nc(-c2cc(Cl)ccc2Cl)n1-c1ccccc1` came in with a melting point of 207 to 208 °C.

For `Cc1cccnc1-c1nc(C(=O)NN2CCCCC2)c(C)n1-c1ccc(Cl)cc1`, the melting point was 211 to 213 °C.

In the case of `Cc1cccnc1-c1nc(C(=O)NC2CCCCC2)c(C)n1-c1ccc(Cl)cc1`, the melting point is 188 to 190 °C.

`O=C(NN1CCCC1)c1cn(-c2ccc(Br)cc2)c(-c2ccc(Cl)cc2Cl)n1` returned a melting point of 238 to 240 °C.

As to `CCCCCNC(=O)c1cn(-c2ccc(Cl)cc2)c(-c2ccc(Cl)cc2OC)n1`, the melting point was determined as 115 °C.

Molecule `CCN(CC)C(=O)c1cn(-c2ccc(Cl)cc2)c(-c2ccc(Cl)cc2Cl)n1` gave a melting point of 177 to 179 °C.

As for `O=C(NC12CC3CC(CC(C3)C1)C2)c1cn(-c2ccc(Cl)cc2)c(-c2ccc(Cl)cc2C(F)(F)F)n1`, the melting point was found to be 288 °C.

In the case of `O=C(NCC(F)(F)F)c1cn(-c2ccc(Cl)cc2)c(-c2ccc(Cl)cc2C(F)(F)F)n1`, the melting point stood at 149 °C.

`O=C(NC1CCCCC1)c1cn(-c2cccnc2)c(-c2ccc(Cl)cc2Cl)n1` gave a melting point of 195 °C.

The molecule `CCCCCNC(=O)c1cn(-c2cccnc2)c(-c2ccc(Cl)cc2Cl)n1` displayed a melting point of 117 °C.

Molecule `Cc1c(C(=O)NC2CCCCC2)nc(-c2ccc(Cl)cc2C(F)(F)F)n1-c1ccc(Cl)cc1` displayed a melting point of 212 °C.

For `COc1cc(Cl)ccc1-c1nc(C(=O)NN2CCCCC2)c(C)n1-c1ccc(Cl)cc1`, the melting point is above 256 °C.

Take `COc1cc(Cl)ccc1-c1nc(C(=O)NC2CCCCC2)c(C)n1-c1ccc(Cl)cc1`: the melting point was determined as 201 °C.

Molecule `Cc1c(C(=O)NC2CCCCC2)nc(-c2ccc(Cl)cc2Cl)n1-c1ccc(F)cc1` showed a melting point of 229 to 230 °C.

Consider `CCCCCNC(=O)c1nc(-c2ccccc2Cl)n(-c2cccc(F)c2)c1C`, for which the melting point lay in the range of 97 to 102 °C.

Consider `CCc1c(C(=O)NC2CCCCC2)nc(-c2ccc(C)n2C)n1-c1ccccc1`, for which the melting point lay in the range of 195 to 196 °C.

As to `O=C(Nc1ccccc1)c1cn(-c2ccc(Cl)cc2)c(-c2ccc(Cl)cc2Cl)n1` [Example 4, 1-(4-Chlorophenyl)-2-(2,4-dichlorophenyl)-N-phenyl-1H-imidazole-4-carboxamide], the Ki in data set [1] (read-out: hCB1 pKi (converted)) is 126 nM.

For the molecule `Cc1c(C(=O)NOC(C)(C)C)nc(-c2ccc(Cl)cc2)n1-c1ccc(Cl)cc1Cl` [Example 11, N-(t-Butoxy)-2-(4-chlorophenyl)-1-(2,4-dichlorophenyl)-5-methyl-1H-imidazole-4-carboxamide], in data set [1] (read-out: hCB1 pKi (converted)), the Ki is 501 nM.

With `COc1cc(Cl)ccc1-c1nc(C(=O)NN2CCCCC2)cn1-c1ccc(Cl)cc1` [Example 28, 1-(4-Chlorophenyl)-2-(2-methoxy-4-chlorophenyl)-N-(piperidin-1-yl)-1H-imidazole-4-carboxamide], the melting point came to 220 °C. Besides, the Ki in data set [1] (hCB1 pKi) was 63.1 nM.

Molecule `O=C(NN1CCCCC1)c1cn(-c2ccc(Cl)cc2)c(-c2ccc(Cl)cc2F)n1` [Example 30, 1-(4-Chlorophenyl)-2-(2-fluoro-4-chlorophenyl)-N-(piperidin-1-yl)-1H-imidazole-4-carboxamide] showed a melting point of 217 to 218 °C. The Ki in data set [1] (hCB1 pKi) was 25.1 nM.

On to `O=C(NN1CCCCC1)c1cn(-c2ccc(F)cc2)c(-c2ccc(Cl)cc2Cl)n1` [Example 31, 2-(2,4-Dichlorophenyl)-1-(4-fluorophenyl)-N-(piperidin-1-yl)-1H-imidazole-4-carboxamide], for which the melting point fell in the range of 175 to 176 °C. Also, in data set [1] (read-out: hCB1 pKi (converted)), the Ki is 200 nM.

Turning to `O=C(NC1CCCCC1)c1cn(-c2ccc(F)cc2)c(-c2ccc(Cl)cc2Cl)n1` [Example 32, N-Cyclohexyl-2-(2,4-dichlorophenyl)-1-(4-fluorophenyl)-1H-imidazole-4-carboxamide], the melting point was in the range of 184 to 185 °C. This molecule gave a Ki in data set [1] (hCB1 pKi) of 25.1 nM.

Molecule `O=C(NC1CCCCC1)c1cn(-c2ccc(Cl)cc2)c(-c2ccc(Cl)cc2F)n1` [Example 33, N-Cyclohexyl-2-(2-fluoro-4-chlorophenyl)-1-(4-chlorophenyl)-1H-imidazole-4-carboxamide] showed a melting point of 157 to 159 °C. In data set [1] (read-out: hCB1 pKi (converted)), the Ki was 501 nM.

Regarding `COc1ccc(-n2cc(C(=O)NN3CCCCC3)nc2-c2ccc(Cl)cc2Cl)cc1` [Example 35, 2-(2,4-Dichlorophenyl)-1-(4-methoxyphenyl)-N-(piperidin-1-yl)-1H-imidazole-4-carboxamide], the melting point lay in the range of 178 to 179 °C. In data set [1] (hCB1 pKi), this molecule showed a Ki of 50.1 nM.

`O=C(NN1CCCCC1)c1cn(-c2cccnc2)c(-c2ccc(Cl)cc2Cl)n1` [Example 42, 2-(2,4-Dichlorophenyl)-1-(pyridin-3-yl)-N-(piperidin-1-yl)-1H-imidazole-4-carboxamide] displayed a melting point of 165 to 170 °C.

Take `Cc1c(C(=O)NC2CCCCC2)nc(-c2ccc(Cl)cc2Cl)n1-c1ccc(C(F)(F)F)cc1` [Example 47, N-Cyclohexyl-2-(2,4-dichlorophenyl)-5-methyl-1-(4-(trifluoromethyl)phenyl)-1H-imidazole-4-carboxamide]: the melting point was in the range of 178 to 179 °C. Besides, the Ki in data set [1] (read-out: hCB1 pKi (converted)) was 158 nM.

Consider `COc1ccc(-n2c(-c3ccc(Cl)cc3Cl)nc(C(=O)NC3CCCCC3)c2C)cc1` [Example 49, N-(1-cyclohexyl)-2-(2,4-dichlorophenyl)-5-methyl-1-(4-methoxyphenyl)-1H-imidazole-4-carboxamide], for which the melting point is 160 to 161 °C. Moreover, the Ki in data set [1] (read-out: hCB1 pKi (converted)) is 126 nM.

As to `Cc1c(C(=O)N(C)C)nc(-c2ccc(Cl)cc2Cl)n1-c1ccc(Cl)cc1` [Example 50, 1-(4-Chlorophenyl)-2-(2,4-dichlorophenyl)-N,N,5-trimethyl-1H-imidazole-4-carboxamide], the Ki in data set [1] (hCB1 pKi) was 5.01 nM.

On to `Cc1c(C(=O)NN2CCCCCC2)nc(-c2ccc(Cl)cc2Cl)n1-c1ccc(Cl)cn1` [Example 53, N-(1-Azepanyl)-1-(5-Chloropyridin-2-yl)-2-(2,4-dichlorophenyl)-5-methyl-1H-imidazole-4-carboxamide], for which the Ki in data set [1] (hCB1 pKi) is 50.1 nM.

The molecule `Cc1c(C(=O)NC2CCCCC2)nc(-c2ccc(Cl)cc2Cl)n1-c1ccc(Cl)cn1` [Example 54, 1-(5-Chloropyridin-2-yl)-N-cyclohexyl-2-(2,4-dichlorophenyl)-5-methyl-1H-imidazole-4-carboxamide] showed a Ki in data set [1] (hCB1 pKi) of 100 nM.

Turning to `CCCCCNC(=O)c1nc(-c2ccc(Cl)cc2Cl)n(-c2ccc(Cl)cn2)c1C` [Example 55, 1-(5-Chloropyridin-2-yl)-2-(2,4-dichlorophenyl)-5-methyl-N-(n-pentyl)-1H-imidazole-4-carboxamide], the Ki in data set [1] (hCB1 pKi) was 50.1 nM.

Molecule `Cc1c(C(=O)NCc2ccc(F)cc2)nc(-c2ccc(Cl)cc2Cl)n1-c1ccc(Cl)cn1` [Example 56, 1-(5-Chloropyridin-2-yl)-2-(2,4-dichlorophenyl)-N-(4-fluorobenzyl)-5-methyl-1H-imidazole-4-carboxamide] came in with a melting point of 123 to 126 °C. Further, in data set [1] (read-out: hCB1 pKi (converted)), the Ki is 158 nM.

Turning to `Cc1c(C(=O)NN2CCCCC2)nc(-c2ccc(Cl)cc2C(F)(F)F)n1-c1ccc(Cl)cc1` [Example 58, 1-(4-Chlorophenyl)-5-methyl-N-(piperidin-1-yl)-2-(2-trifluoromethyl-4-chlorophenyl)-1H-imidazole-4-carboxamide], the melting point turned out to be 165 °C. The Ki in data set [1] (read-out: hCB1 pKi (converted)) was 200 nM.

For the molecule `CCCCCNC(=O)c1nc(-c2ccc(Cl)cc2Cl)n(-c2ccc(Cl)cn2)c1CC` [Example 79, 1-(5-Chloropyridin-2-yl)-2-(2,4-dichlorophenyl)-5-ethyl-N-(n-pentyl)-1H-imidazole-4-carboxamide], in data set [1] (hCB1 pKi), the Ki was 15.8 nM.

On to `Cc1c(C(=O)C2NCCc3ccccc32)nc(-c2ccc(Cl)cc2Cl)n1-c1ccc(Cl)cc1` (stereo not shown) [Example 88, 1-{[1-(4-Chlorophenyl)-2-(2,4-dichlorophenyl)-5-methyl-1H-imidazol-4-yl]carbonyl}-1,2,3,4-tetrahydroisoquinoline], for which the melting point lay within 143 to 146 °C.

In turn, `Cc1c(C(=O)NC2CC3CCC2C3)nc(-c2ccc(Cl)cc2Cl)n1-c1ccc(Cl)cc1` (stereo not drawn) [Example 89, N-(Endo-bicyclo[2.2.1]hept-2-yl)-1-(4-chlorophenyl)-2-(2,4-dichlorophenyl)-5-methyl-1H-imidazole-4-carboxamide] showed a Ki in data set [1] (hCB1 pKi) of 6.31 nM.

In data set [1] (hCB1 pKi), `CCCCCNC(=O)c1nc(-c2ccc(Cl)cc2Cl)n(-c2ccc(Cl)cc2)c1C` [Example 91, 1-(4-Chlorophenyl)-2-(2,4-dichlorophenyl)-5-methyl-N-(n-pentyl)-1H-imidazole-4-carboxamide] had a Ki of 31.6 nM.

`CCc1c(C(=O)NC2CCCCC2)nc(-c2ccc(Cl)cc2Cl)n1-c1cc(F)ccc1F` [Example 97, N-Cyclohexyl-2-(2,4-dichlorophenyl)-1-(2,5-difluorophenyl)-5-ethyl-1H-imidazole-4-carboxamide]: the melting point lay within 144 to 146 °C.

Take `Cc1c(C(=O)NC2CCCCC2)nc(-c2ccc(Cl)cc2Cl)n1-c1cc(F)ccc1F` [Example 98, N-Cyclohexyl-2-(2,4-dichlorophenyl)-1-(2,5-difluorophenyl)-5-methyl-1H-imidazole-4-carboxamide]: the melting point lay within 206 to 208 °C.

Take `CS(=O)(=O)c1c(C(=O)NC2CCCCC2)nc(-c2ccc(Cl)cc2Cl)n1-c1ccc(Cl)cc1` [Example 119, 1-(4-chlorophenyl)-2-(2,4-dichlorophenyl)-5-methylsulfonyl-N-(cyclohexyl)-1H-imidazole-4-carboxamide]: the Ki in data set [1] (hCB1 pKi) was 63.1 nM.

With `CSc1c(C(=O)NC2CCCCC2)nc(-c2ccc(Cl)cc2Cl)n1-c1ccc(Cl)cc1` [Example 121, 1-(4-chlorophenyl)-2-(2,4-dichlorophenyl)-5-methylsulfanyl-N-(cyclohexyl)-1H-imidazole-4-carboxamide], in data set [1] (hCB1 pKi), the Ki is 63.1 nM.
